Measurements published in patent US8110703B2, “Retinoid derivative and pharmaceutical composition and use thereof” (Anhui Medical University, priority 2008, dated 2012).
Marks after values point to notes of the source that are not given here.

Columns and labels:
Type in all cases: cell-based
[1] = system: A549 lung cancer cells; assay: MTT cell growth and proliferation experiment, A549; design: key to Inhibition Rate: (control OD570 − test OD570)/control OD570, as fraction; conditions: concentration not given; for Inhibition Rate: fraction
In short: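 Cells in DMEM/10% calf serum were treated with retinoic acid derivatives at 1, 5 and 10 ug/ml (DMSO <0.1%) for 3 d, then with MTT for 4 h at 37° C. Read-out was OD570 after DMSO solubilisation, giving % growth inhibition versus control wells. A time-course at 10 umol/L ran for 1, 2, 3 and 7 days.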

[2] = system: liver cancer HepG2 cells; assay: MTT cell growth and proliferation experiment, HepG2; design: key to Inhibition Rate: (control OD570 − test OD570)/control OD570, as fraction; conditions: concentration not given; for Inhibition Rate: fraction
In short: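 After treatment, 20 ul/well of MTT (5 g/L) was added for 4 h at 37° C. The medium was then removed and 20 ul/well DMSO added to dissolve the crystals. Plates were shaken 10 min and read at 570 nm. Inhibition rate was (control OD570 − experimental OD570)/control OD570 × 100%, averaged over three experiments.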

[3] = system: A549 cells; assay: Differentiation index: CEA secretory volume of A549 cells; conditions: A549 culture supernatant, 10 ug/ml, 3 d
In short: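 Cells exposed 3 days to compounds at 10 μg/ml, alongside untreated, DMSO/ethanol solvent and 10 μg/ml fenretinide controls. Culture supernatant taken after centrifugation; CEA content measured by kit using enzyme kinetics.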

[4] = system: HepG2 cells; assay: AFP secretory volume of HepG2 cells; conditions: HepG2 cells
[5] = system: HepG2 cells; assay: γ-GT specific activity of HepG2 cells
[6] = system: A549 cells; assay: Cell cycle and apoptosis by flow cytometry, A549; conditions: A549, 10 μg/ml, 3 days
In short: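 Cells were exposed to drug at 10 μg/ml for 3 days at 37 °C, alongside cell and solvent (1‰ DMSO, ethanol) controls. After fixation/permeabilization and PI staining for 30 min, 10000 cells per sample were analyzed in triplicate for G0-G1, S and G2-M fractions and the apoptotic fraction.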

[7] = system: HepG2 cells; assay: Cell cycle and apoptosis by flow cytometry, HepG2; conditions: HepG2, flow cytometry
[8] = A549, MTT time gradient, in DMSO, 1 d
[9] = A549, MTT time gradient, in DMSO, 2 d
[10] = A549, MTT time gradient, in DMSO, 3 d
[11] = A549, MTT time gradient, in DMSO, 7 d
[12] = A549, MTT time gradient, in ethanol, 1 d
[13] = A549, MTT time gradient, in ethanol, 2 d
[14] = A549, MTT time gradient, in ethanol, 3 d
[15] = A549, MTT time gradient, in ethanol, 7 d
[16] = A549, MTT, 3 d, Table 1 control drug in DMSO
[17] = A549, MTT, 3 d, Table 1 control drug in ethanol
[18] = HepG2, MTT time gradient, in DMSO, 1 d
[19] = HepG2, MTT time gradient, in DMSO, 2 d
[20] = HepG2, MTT time gradient, in DMSO, 3 d
[21] = HepG2, MTT time gradient, in DMSO, 7 d
[22] = HepG2, MTT time gradient, in ethanol, 1 d
[23] = HepG2, MTT time gradient, in ethanol, 2 d
[24] = HepG2, MTT time gradient, in ethanol, 3 d
[25] = HepG2, MTT, 3 d, Table 3 control drug in DMSO
[26] = HepG2, MTT, 3 d, Table 3 control drug in ethanol
[27] = HepG2, Table 5 repeat MTT, 3 days, DMSO
[28] = HepG2, Table 5 repeat MTT, 3 days, ethanol

CC1=C(/C=C/C(C)=C/C=C/C(C)=C/C(=O)Nc2ccc(O)cc2)C(C)(C)CCC1 [Fenretinide, reference compound]
OD Value (x ± s) [1, 8]: 0.883 ± 0.062 | Inhibition Rate [1, 8]: 0.037 | OD Value (x ± s) [1, 9]: 1.360 ± 0.052 | Inhibition Rate [1, 9]: 0.070 | OD Value (x ± s) [1, 10]: 0.845 ± 0.034 | Inhibition Rate [1, 10]: 0.089 | OD Value (x ± s) [1, 11]: 1.835 ± 0.030 | Inhibition Rate [1, 11]: 0.115 | OD Value (x ± s) [1, 12]: 0.887 ± 0.057 | Inhibition Rate [1, 12]: 0.033 | OD Value (x ± s) [1, 13]: 1.333 ± 0.046 | Inhibition Rate [1, 13]: 0.089 | OD Value (x ± s) [1, 14]: 0.836 ± 0.034 | Inhibition Rate [1, 14]: 0.099 | OD Value (x ± s) [1, 15]: 1.851 ± 0.030 | Inhibition Rate [1, 15]: 0.108 | OD Value (x ± s) [1, 16]: 1.724 ± 0.080 | Inhibition Rate [1, 16]: 0.076 | OD Value (x ± s) [1, 17]: 1.710 ± 0.056 | Inhibition Rate [1, 17]: 0.083 | OD Value (x ± s) [2, 18]: 1.61 ± 0.16 | Inhibition Rate [2, 18]: 0.09 | OD Value (x ± s) [2, 19]: 1.37 ± 0.07 | Inhibition Rate [2, 19]: 0.19 | OD Value (x ± s) [2, 20]: 1.07 ± 0.20 | Inhibition Rate [2, 20]: 0.13 | OD Value (x ± s) [2, 21]: 1.17 ± 0.06 | Inhibition Rate [2, 21]: 0.14 | OD Value (x ± s) [2, 22]: 1.67 ± 0.05 | Inhibition Rate [2, 22]: 0.05 | OD Value (x ± s) [2, 23]: 1.31 ± 0.09 | Inhibition Rate [2, 23]: 0.22 | OD Value (x ± s) [2, 24]: 1.06 ± 0.09 | Inhibition Rate [2, 24]: 0.14 | OD Value (x ± s) [2, 25]: 1.27 ± 0.25 | Inhibition Rate [2, 25]: 0.25 | OD Value (x ± s) [2, 26]: 1.28 ± 0.21 | Inhibition Rate [2, 26]: 0.24 | OD Value (x ± s) [2, 27]: 1.469 ± 0.078 | Inhibition Rate [2, 27]: 0.322* | OD Value (x ± s) [2, 28]: 1.422 ± 0.123 | Inhibition Rate [2, 28]: 0.343* | CEA ([3]; DMSO): 4.5 µg/L | CEA ([3]; ethanol): 4.3 µg/L | AFP ([4]; DMSO): 15.1 µg/L | AFP ([4]; ethanol): 14.9 µg/L | γ-GT ([5]; DMSO): 66.6 ± 0.5 U/L | γ-GT ([5]; ethanol): 61.0 ± 1.0 U/L | Apoptosis Rate (%) ([6]; in DMSO): 29.3% | G0-G1 (%) ([6]; in DMSO): 47.2% | G2-M (%) ([6]; in DMSO): 2.09% | S % ([6]; in DMSO): 22.2% | Apoptosis Rate (%) ([6]; in ethanol): 14.0% | G0-G1 (%) ([6]; in ethanol): 59.3% | G2-M (%) ([6]; in ethanol): 2.63% | S % ([6]; in ethanol): 24.5% | Apoptosis Rate (%) ([7]; in DMSO): 5.71% | G0-G1 (%) ([7]; in DMSO): 67.3% | G2-M (%) ([7]; in DMSO): 7.64% | S % ([7]; in DMSO): 19.8% | Apoptosis Rate (%) ([7]; in ethanol): 10.6% | G0-G1 (%) ([7]; in ethanol): 60.0% | G2-M (%) ([7]; in ethanol): 5.69% | S % ([7]; in ethanol): 24.1%
